12 compounds from patent US12281119B2, “Imidazo[2,1-f][1,2,4]triazin-4-amine derivatives as TLR7 agonist” (BEIGENE, LTD., priority 2019, dated 2025) can be followed below.

The target in assay [1] is T1, human TLR 8 protein (Homo sapiens, UniProt Q9NR97).
T1 construct: expressed in transfected cells; host or cells: HEK293 (HEK-Blue hTLR8)
T1 sequence (Q9NR97 27-1041): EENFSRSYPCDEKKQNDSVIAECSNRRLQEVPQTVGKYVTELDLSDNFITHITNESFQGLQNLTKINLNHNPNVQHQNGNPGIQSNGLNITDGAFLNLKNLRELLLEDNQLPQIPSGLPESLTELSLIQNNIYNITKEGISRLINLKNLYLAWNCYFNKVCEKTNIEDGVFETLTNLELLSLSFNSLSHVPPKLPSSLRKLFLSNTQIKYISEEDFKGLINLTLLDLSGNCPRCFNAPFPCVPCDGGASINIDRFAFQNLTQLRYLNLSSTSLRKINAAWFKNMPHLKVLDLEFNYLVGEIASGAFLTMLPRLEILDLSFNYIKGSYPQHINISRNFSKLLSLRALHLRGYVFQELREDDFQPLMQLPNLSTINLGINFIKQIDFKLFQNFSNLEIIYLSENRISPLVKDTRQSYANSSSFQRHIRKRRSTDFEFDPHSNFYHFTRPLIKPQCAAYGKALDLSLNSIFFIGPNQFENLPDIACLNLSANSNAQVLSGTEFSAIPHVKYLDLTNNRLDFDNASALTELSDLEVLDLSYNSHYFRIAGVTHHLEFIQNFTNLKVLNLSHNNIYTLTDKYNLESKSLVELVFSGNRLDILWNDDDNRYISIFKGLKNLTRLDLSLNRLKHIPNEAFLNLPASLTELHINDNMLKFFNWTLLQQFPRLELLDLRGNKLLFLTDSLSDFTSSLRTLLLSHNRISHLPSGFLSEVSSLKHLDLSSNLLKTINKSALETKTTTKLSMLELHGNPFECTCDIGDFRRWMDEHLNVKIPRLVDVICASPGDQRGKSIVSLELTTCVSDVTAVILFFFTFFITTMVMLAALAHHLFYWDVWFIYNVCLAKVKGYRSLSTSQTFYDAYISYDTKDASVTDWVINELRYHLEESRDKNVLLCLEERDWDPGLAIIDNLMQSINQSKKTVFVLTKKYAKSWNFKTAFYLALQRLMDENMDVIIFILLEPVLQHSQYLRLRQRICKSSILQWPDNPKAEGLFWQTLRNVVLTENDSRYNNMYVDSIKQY
The experiment in a line: TLR8 stimulation determined using HEK-Blue Detection. The note with it: HEK-Blue hTLR8 cells, 16 hr, relative to Resiquimod or Motolimod maximum. It counts as cell-based. An excerpt: TLR8 Stimulation Determined Using HEK-Blue Detection
This assay was designed for studying the stimulation of human TLR 8 protein in HEK-Blue hTLR8 tool cell line by monitoring the activation of NF-1B. HEK-Blue hTLR8 cells were obtained by co-transfection of the hTLR8 gene and an optimized secreted embryonic alkaline phosphatase (SEAP) reporter gene into HEK293 cells. The SEAP reporter gene was placed under the control of the IFN-β minimal promoter fused to five NF-κB and AP-1-binding sites. Stimulation with a TLR 8 ligand activates NF-κB and AP-1 which induce the expression of SEAP. Levels of SEAP can be easily determined with HEK-Blue Detection, a cell culture medium that allows for real-time detection of SEAP. HEK-Blue Detection contains all the nutrients necessary for cell growth and a specific SEAP color substrate. The hydrolysis of the substrate by SEAP produces a purple/blue color that can be measured with a spectrophotometer.
When growing to 50-80% confluency, HEK-Blue hTLR7/8 cells were plated into 96-well plate (costar 3599) at a density of 40000 cells/well. Then compounds were added with serial dilutions over 10 points with a 1 nM-10 uM final concentration range in 0.1% DMSO/HEK-Blue Detection. The plates were then incubated for 16 hr at 37° C. in 5% CO2. The optical density at 620-655 nm was read on BMG PHERAstar FSX instrument. The EC50 for each compound was determined by calculating the percentages of the maximum activation identified with Resiquimod or Motolimod.

Assay [2] has as its target T2, human TLR7 (Homo sapiens, UniProt Q9NYK1).
T2 sequence (Q9NYK1 27-1049): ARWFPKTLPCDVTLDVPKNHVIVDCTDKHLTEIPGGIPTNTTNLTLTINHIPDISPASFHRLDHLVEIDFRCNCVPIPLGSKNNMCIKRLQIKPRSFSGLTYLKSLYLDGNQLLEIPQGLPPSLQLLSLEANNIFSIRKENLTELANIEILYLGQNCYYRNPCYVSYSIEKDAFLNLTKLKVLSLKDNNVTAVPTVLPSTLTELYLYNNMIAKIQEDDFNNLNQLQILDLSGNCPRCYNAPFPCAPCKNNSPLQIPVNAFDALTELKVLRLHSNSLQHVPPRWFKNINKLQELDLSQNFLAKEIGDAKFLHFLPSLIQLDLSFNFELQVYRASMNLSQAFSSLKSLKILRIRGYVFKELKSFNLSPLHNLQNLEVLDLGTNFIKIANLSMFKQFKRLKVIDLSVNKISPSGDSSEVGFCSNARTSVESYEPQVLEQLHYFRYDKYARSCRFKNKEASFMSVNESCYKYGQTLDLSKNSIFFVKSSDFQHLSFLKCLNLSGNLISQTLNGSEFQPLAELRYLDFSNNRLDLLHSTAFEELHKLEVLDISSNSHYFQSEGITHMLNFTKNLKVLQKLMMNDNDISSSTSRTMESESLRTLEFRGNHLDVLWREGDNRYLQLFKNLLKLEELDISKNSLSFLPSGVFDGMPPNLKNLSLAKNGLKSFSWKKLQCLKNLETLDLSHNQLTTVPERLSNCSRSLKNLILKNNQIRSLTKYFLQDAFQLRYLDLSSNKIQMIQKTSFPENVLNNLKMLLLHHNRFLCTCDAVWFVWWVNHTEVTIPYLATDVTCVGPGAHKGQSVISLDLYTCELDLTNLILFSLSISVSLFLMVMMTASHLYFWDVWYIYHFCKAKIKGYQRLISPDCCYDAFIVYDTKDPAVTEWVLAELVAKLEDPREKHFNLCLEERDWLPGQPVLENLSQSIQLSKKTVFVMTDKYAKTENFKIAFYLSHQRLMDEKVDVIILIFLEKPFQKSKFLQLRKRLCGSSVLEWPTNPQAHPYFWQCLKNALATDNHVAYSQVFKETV
The experiment in a line: TLR7 stimulation determined using HEK-Blue Detection. It counts as cell-based. On the set-up: expressed in transfected cells; host or cells: HEK293 (HEK-Blue hTLR7). To be noted: HEK-Blue hTLR7 cells, HEK-Blue Detection (A77-A124), 16 hr, relative to Resiquimod maximum. An excerpt:
TLR7 Stimulation Determined Using HEK-Blue Detection
This assay was designed for studying the stimulation of human TLR7 protein in HELK-Blue hTLR7 tool cell line by monitoring the activation of NF-κB. HEK-Blue hTLR7 cells were obtained by co-transfection of the hTLR7 gene and an optimized secreted embryonic alkaline phosphatase (SLAP) reporter gene into HEK293 cells. The SLAP reporter gene was placed under the control of the IFN-β minimal promoter fused to five NF-κB and AP-1-binding sites. Stimulation with a TLR7 ligand activates NF-κB and AP-1 which induce the expression of SLAP. Levels of SLAP can be easily determined with HEK-Blue Detection, a cell culture medium that allows for real-time detection of SLAP. HLK-Blue Detection contains all the nutrients necessary for cell growth and a specific SLAP color substrate. The hydrolysis of the substrate by SLAP produces a purple/blue color that can be measured with a spectrophotometer.
When growing to 50-80%0 confluency, HLK-Blue hTLR7 cells were plated into 96-well plate (costar 3599) at a density of 40000 cells/well. Then compounds were added with serial dilutions over 10 points with a 0.04 nM-10 μM final concentration range in 0.1% DMSO/BLK-Blue Detection. The plates were then incubated for 16 hr at 37° C. in […] and vortex for 30s before measurement. The optical density at 620-655 nm was read on BMG PHLRAstar FSX instrument. The EC50 for each compound was determined by calculating the percentages of the maximum activation identified with Resiquimod.

Regarding `CCCC(CCO)Oc1nc(N)c2ncc(Cc3cc(F)c(OCCNC)c(F)c3)n2n1` (single isomer, unassigned) [Compound A114, (R or S)-3-((4-amino-7-(3,5-difluoro-4-(2-(methylamino)ethoxy)benzyl)imidazo[2,1-f][1,2,4]triazin-2-yl)oxy)hexan-1-ol], the EC50 in assay [1] worked out at 6.8 nM; in assay [2], 1 nM.

Regarding `CCCC(CCO)Oc1nc(N)c2ncc(Cc3ccc(OCCNC)cc3F)n2n1` (single isomer, unassigned) [Compound A115, (R or S)-3-((4-amino-7-(2-fluoro-4-(2-(methylamino)ethoxy)benzyl)imidazo[2,1-f][1,2,4]triazin-2-yl)oxy)hexan-1-ol], the EC50 came out at 7 nM in assay [1] and 0.72 nM in assay [2].

With `CCCC(CCO)Oc1nc(N)c2ncc(Cc3cc(OC)cc(OCCNC)c3)n2n1` (single isomer, unassigned) [Compound A116, (R or S)-3-((4-amino-7-(3-methoxy-5-(2-(methylamino)ethoxy)benzyl)imidazo[2,1-f][1,2,4]triazin-2-yl)oxy)hexan-1-ol], the EC50 in assay [1] is 51 nM; in assay [2] it was 37.8 nM.

Regarding `CCCC(CCO)Oc1nc(N)c2ncc(Cc3ccc(OC)c(OCCNC)c3)n2n1` (single isomer, unassigned) [Compound A117, (R or S)-3-((4-amino-7-(4-methoxy-3-(2-(methylamino)ethoxy)benzyl)imidazo[2,1-f][1,2,4]triazin-2-yl)oxy)hexan-1-ol], the EC50 in assay [1] amounted to 532 nM; in assay [2] it was 13 nM.

For `CCCC(CCO)Oc1nc(N)c2ncc(Cc3cccc(OCCNC)c3OC)n2n1` (single isomer, unassigned) [Compound A118, (R or S)-3-((4-amino-7-(2-methoxy-3-(2-(methylamino)ethoxy)benzyl)imidazo[2,1-f][1,2,4]triazin-2-yl)oxy)hexan-1-ol], the EC50 is 21 nM in assay [1] and 11 nM in assay [2].

As for `CCCC(CCO)Oc1nc(N)c2ncc(Cc3ccc(CCNC)cc3)n2n1` (single isomer, unassigned) [Compound A119, (R or S)-3-((4-amino-7-(4-(2-(methylamino)ethyl)benzyl)imidazo[2,1-f][1,2,4]triazin-2-yl)oxy)hexan-1-ol], the results for the EC50 in assay [1] and in assay [2] were 2970 nM and 146 nM, respectively.

Turning to `CCCC(CCO)Oc1nc(N)c2ncc(Cc3ccc(CCNC)cc3)n2n1` (single isomer, unassigned) [Compound A120, (S or R)-3-((4-amino-7-(4-(2-(methylamino)ethyl)benzyl)imidazo[2,1-f][1,2,4]triazin-2-yl)oxy)hexan-1-ol], the EC50 in assay [1] amounted to 59 nM; in assay [2] it was 3.9 nM.

In the case of `CCCC(CCO)Oc1nc(N)c2ncc(Cc3ccc(OCCNC)cc3OCC)n2n1` (single isomer, unassigned) [Compound A121, (R or S)-3-((4-amino-7-(2-ethoxy-4-(2-(methylamino)ethoxy)benzyl)imidazo[2,1-f][1,2,4]triazin-2-yl)oxy)hexan-1-ol], the EC50 was determined as 19 nM in assay [1] and 0.63 nM in assay [2].

Regarding `CCCC(CCO)Oc1nc(N)c2ncc(Cc3ccc(OCC(C)NC)nc3)n2n1` (single isomer, unassigned) [Compound A122, (R or S)-3-((4-amino-7-((6-(2-(methylamino)propoxy)pyridin-3-yl)methyl)imidazo[2,1-f][1,2,4]triazin-2-yl)oxy)hexan-1-ol], the EC50 came to 113 nM in assay [1] and 6 nM in assay [2].

Turning to `CCCC(CCO)Oc1nc(N)c2ncc(Cc3c(F)cc(OCCNC)cc3F)n2n1` (single isomer, unassigned) [Compound A123, (R or S)-3-((4-amino-7-(2,6-difluoro-4-(2-(methylamino)ethoxy)benzyl)imidazo[2,1-f][1,2,4]triazin-2-yl)oxy)hexan-1-ol], the EC50 in assay [1] was determined as 15 nM; in assay [2], 0.7 nM.

On to `CCCC(CCO)Oc1nc(N)c2ncc(Cc3ccc(OCCNC)c4ccccc34)n2n1` (single isomer, unassigned) [Compound A124, (R or S)-3-((4-amino-7-((4-(2-(methylamino)ethoxy)naphthalen-1-yl)methyl)imidazo[2,1-f][1,2,4]triazin-2-yl)oxy)hexan-1-ol], for which the EC50 was found to be 105 nM in assay [1] and 1.2 nM in assay [2].

Regarding `CCCC(C)Oc1nc(N)c2ncc(Cc3ccc(OCCNC)nc3)n2n1` (stereo not drawn) [Compound A77, 7-((6-(2-(methylamino)ethoxy)pyridin-3-yl)methyl)-2-(pentan-2-yloxy)imidazo[2,1-f][1,2,4]triazin-4-amine], the 50% effective concentration (EC50) in assay [1] came out at 293 nM; in assay [2] it was 19.2 nM.

As usually defined, the EC50 is the midpoint of the concentration-response curve. High values mean a less potent agent, low ones a more potent agent.
